Measured values from US7396837B2, “Antitumoral analogs of lamellarins” (Pharma Mar, S.A.U., priority 2002, dated 2008).

system: LNCaP; assay: SRB colorimetric cell growth inhibition assay, LNCaP; format: cell-based; conditions: Homo sapiens, LNCaP, LN-caP; GI=growth inhibition; read-out: GI50 LN-caP
Method in brief: (§1)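 Growth inhibition (GI), cytostatic total growth inhibition (TGI) and cytotoxic cell-kill (LC) parameters were calculated from SRB-stained cultures held under constant compound exposure, triplicates averaged.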

| Compound | GI50 [nM] |
| --- | --- |
| COc1cc(-c2c3c4cc(OC)c(OC(=O)C[C@H](N)C(C)C)cc4oc(=O)c3n3ccc4cc(OC(=O)C[C@H](N)C(C)C)c(OC)cc4c23)ccc1OC(=O)C[C@H](N)C(C)C [Compound 206] | 75.2 |

same assay, conditions: Homo sapiens, LNCaP, LN-caP; cell killing (cytotoxic effect); read-out: LC50 LN-caP

| Compound | CC50 [nM] |
| --- | --- |
| COc1cc(-c2c3c4cc(OC)c(OC(=O)C[C@H](N)C(C)C)cc4oc(=O)c3n3ccc4cc(OC(=O)C[C@H](N)C(C)C)c(OC)cc4c23)ccc1OC(=O)C[C@H](N)C(C)C [Compound 206] | 3330 |

same assay, conditions: Homo sapiens, LNCaP, LN-caP; total growth inhibition (cytostatic effect); read-out: TGI LN-caP

| Compound | IC (TGI) [nM] |
| --- | --- |
| COc1cc(-c2c3c4cc(OC)c(OC(=O)C[C@H](N)C(C)C)cc4oc(=O)c3n3ccc4cc(OC(=O)C[C@H](N)C(C)C)c(OC)cc4c23)ccc1OC(=O)C[C@H](N)C(C)C [Compound 206] | 475 |

system: HeLa-APL; assay: SRB colorimetric cell growth inhibition assay, HeLa-APL (aplidine resistant); format: cell-based; conditions: Homo sapiens, HELA-APL; GI=growth inhibition; read-out: GI50 HELA-APL
Method in brief: as §1

| Compound | GI50 [nM] |
| --- | --- |
| COc1cc(-c2c3c4cc(OC)c(OC(=O)C[C@H](N)C(C)C)cc4oc(=O)c3n3ccc4cc(OC(=O)C[C@H](N)C(C)C)c(OC)cc4c23)ccc1OC(=O)C[C@H](N)C(C)C [Compound 206] | 83.4 |

same assay, conditions: Homo sapiens, HELA-APL; cell killing (cytotoxic effect); read-out: LC50 HELA-APL

| Compound | CC50 [nM] |
| --- | --- |
| COc1cc(-c2c3c4cc(OC)c(OC(=O)C[C@H](N)C(C)C)cc4oc(=O)c3n3ccc4cc(OC(=O)C[C@H](N)C(C)C)c(OC)cc4c23)ccc1OC(=O)C[C@H](N)C(C)C [Compound 206] | 2820 |

same assay, conditions: Homo sapiens, HELA-APL; total growth inhibition (cytostatic effect); read-out: TGI HELA-APL

| Compound | IC (TGI) [nM] |
| --- | --- |
| COc1cc(-c2c3c4cc(OC)c(OC(=O)C[C@H](N)C(C)C)cc4oc(=O)c3n3ccc4cc(OC(=O)C[C@H](N)C(C)C)c(OC)cc4c23)ccc1OC(=O)C[C@H](N)C(C)C [Compound 206] | 523 |

system: PANC-1; assay: SRB colorimetric cell growth inhibition assay, PANC-1; format: cell-based; conditions: Homo sapiens, PANC-1, PANC-1; GI=growth inhibition; read-out: GI50 PANC-1
Method in brief: as §1

| Compound | GI50 [nM] |
| --- | --- |
| COc1cc(-c2c3c4cc(OC)c(OC(=O)C[C@H](N)C(C)C)cc4oc(=O)c3n3ccc4cc(OC(=O)C[C@H](N)C(C)C)c(OC)cc4c23)ccc1OC(=O)C[C@H](N)C(C)C [Compound 206] | 137 |

same assay, conditions: Homo sapiens, PANC-1, PANC-1; cell killing (cytotoxic effect); read-out: LC50 PANC-1

| Compound | CC50 [nM] |
| --- | --- |
| COc1cc(-c2c3c4cc(OC)c(OC(=O)C[C@H](N)C(C)C)cc4oc(=O)c3n3ccc4cc(OC(=O)C[C@H](N)C(C)C)c(OC)cc4c23)ccc1OC(=O)C[C@H](N)C(C)C [Compound 206] | 6250 |

same assay, conditions: Homo sapiens, PANC-1, PANC-1; total growth inhibition (cytostatic effect); read-out: TGI PANC-1

| Compound | IC (TGI) [nM] |
| --- | --- |
| COc1cc(-c2c3c4cc(OC)c(OC(=O)C[C@H](N)C(C)C)cc4oc(=O)c3n3ccc4cc(OC(=O)C[C@H](N)C(C)C)c(OC)cc4c23)ccc1OC(=O)C[C@H](N)C(C)C [Compound 206] | 1270 |

system: K-562; assay: SRB colorimetric cell growth inhibition assay, K-562; format: cell-based; conditions: Homo sapiens, K562, K-562; GI=growth inhibition; read-out: GI50 K-562
Method in brief: as §1

| Compound | GI50 [nM] |
| --- | --- |
| COc1cc(-c2c3c4cc(OC)c(OC(=O)C[C@H](N)C(C)C)cc4oc(=O)c3n3ccc4cc(OC(=O)C[C@H](N)C(C)C)c(OC)cc4c23)ccc1OC(=O)C[C@H](N)C(C)C [Compound 206] | 31.1 |

same assay, conditions: Homo sapiens, K562, K-562; cell killing (cytotoxic effect); read-out: LC50 K-562

| Compound | CC50 [nM] |
| --- | --- |
| COc1cc(-c2c3c4cc(OC)c(OC(=O)C[C@H](N)C(C)C)cc4oc(=O)c3n3ccc4cc(OC(=O)C[C@H](N)C(C)C)c(OC)cc4c23)ccc1OC(=O)C[C@H](N)C(C)C [Compound 206] | 4230 |

same assay, conditions: Homo sapiens, K562, K-562; total growth inhibition (cytostatic effect); read-out: TGI K-562

| Compound | IC (TGI) [nM] |
| --- | --- |
| COc1cc(-c2c3c4cc(OC)c(OC(=O)C[C@H](N)C(C)C)cc4oc(=O)c3n3ccc4cc(OC(=O)C[C@H](N)C(C)C)c(OC)cc4c23)ccc1OC(=O)C[C@H](N)C(C)C [Compound 206] | 1110 |

system: LoVo-Dox; assay: SRB colorimetric cell growth inhibition assay, LoVo-Dox (MDR); format: cell-based; conditions: Homo sapiens, LOVO-DOX; GI=growth inhibition; read-out: GI50 LOVO-DOX
Method in brief: as §1

| Compound | GI50 [nM] |
| --- | --- |
| COc1cc(-c2c3c4cc(OC)c(OC(=O)C[C@H](N)C(C)C)cc4oc(=O)c3n3ccc4cc(OC(=O)C[C@H](N)C(C)C)c(OC)cc4c23)ccc1OC(=O)C[C@H](N)C(C)C [Compound 206] | 294 |

same assay, conditions: Homo sapiens, LOVO-DOX; cell killing (cytotoxic effect); read-out: LC50 LOVO-DOX

| Compound | CC50 [nM] |
| --- | --- |
| COc1cc(-c2c3c4cc(OC)c(OC(=O)C[C@H](N)C(C)C)cc4oc(=O)c3n3ccc4cc(OC(=O)C[C@H](N)C(C)C)c(OC)cc4c23)ccc1OC(=O)C[C@H](N)C(C)C [Compound 206] | 6370 |

same assay, conditions: Homo sapiens, LOVO-DOX; total growth inhibition (cytostatic effect); read-out: TGI LOVO-DOX

| Compound | IC (TGI) [nM] |
| --- | --- |
| COc1cc(-c2c3c4cc(OC)c(OC(=O)C[C@H](N)C(C)C)cc4oc(=O)c3n3ccc4cc(OC(=O)C[C@H](N)C(C)C)c(OC)cc4c23)ccc1OC(=O)C[C@H](N)C(C)C [Compound 206] | 1010 |

system: IGROV; assay: SRB colorimetric cell growth inhibition assay, IGROV; format: cell-based; conditions: Homo sapiens, IGROV; GI=growth inhibition; read-out: GI50 IGROV
Method in brief: as §1

| Compound | GI50 [nM] |
| --- | --- |
| COc1cc(-c2c3c4cc(OC)c(OC(=O)C[C@H](N)C(C)C)cc4oc(=O)c3n3ccc4cc(OC(=O)C[C@H](N)C(C)C)c(OC)cc4c23)ccc1OC(=O)C[C@H](N)C(C)C [Compound 206] | 52.7 |

same assay, conditions: Homo sapiens, IGROV; cell killing (cytotoxic effect); read-out: LC50 IGROV

| Compound | CC50 [nM] |
| --- | --- |
| COc1cc(-c2c3c4cc(OC)c(OC(=O)C[C@H](N)C(C)C)cc4oc(=O)c3n3ccc4cc(OC(=O)C[C@H](N)C(C)C)c(OC)cc4c23)ccc1OC(=O)C[C@H](N)C(C)C [Compound 206] | 589 |

same assay, conditions: Homo sapiens, IGROV; total growth inhibition (cytostatic effect); read-out: TGI IGROV

| Compound | IC (TGI) [nM] |
| --- | --- |
| COc1cc(-c2c3c4cc(OC)c(OC(=O)C[C@H](N)C(C)C)cc4oc(=O)c3n3ccc4cc(OC(=O)C[C@H](N)C(C)C)c(OC)cc4c23)ccc1OC(=O)C[C@H](N)C(C)C [Compound 206] | 194 |

system: SK-BR-3; assay: SRB colorimetric cell growth inhibition assay, SK-BR-3; format: cell-based; conditions: Homo sapiens, SK-BR-3, SK-BR-3; GI=growth inhibition; read-out: GI50 SK-BR-3
Method in brief: as §1

| Compound | GI50 [nM] |
| --- | --- |
| COc1cc(-c2c3c4cc(OC)c(OC(=O)C[C@H](N)C(C)C)cc4oc(=O)c3n3ccc4cc(OC(=O)C[C@H](N)C(C)C)c(OC)cc4c23)ccc1OC(=O)C[C@H](N)C(C)C [Compound 206] | 70.1 |

same assay, conditions: Homo sapiens, SK-BR-3, SK-BR-3; cell killing (cytotoxic effect); read-out: LC50 SK-BR-3

| Compound | CC50 [nM] |
| --- | --- |
| COc1cc(-c2c3c4cc(OC)c(OC(=O)C[C@H](N)C(C)C)cc4oc(=O)c3n3ccc4cc(OC(=O)C[C@H](N)C(C)C)c(OC)cc4c23)ccc1OC(=O)C[C@H](N)C(C)C [Compound 206] | 2890 |

same assay, conditions: Homo sapiens, SK-BR-3, SK-BR-3; total growth inhibition (cytostatic effect); read-out: TGI SK-BR-3

| Compound | IC (TGI) [nM] |
| --- | --- |
| COc1cc(-c2c3c4cc(OC)c(OC(=O)C[C@H](N)C(C)C)cc4oc(=O)c3n3ccc4cc(OC(=O)C[C@H](N)C(C)C)c(OC)cc4c23)ccc1OC(=O)C[C@H](N)C(C)C [Compound 206] | 451 |
